Laboratory results reported in the supplement of paper PMC10307832.

Assays:
Experiment in all cases: relative viability (nuclei count vs DMSO), 5 days (fraction); higher = more cells survive
DM3189 + Vorinostat = compound: C1CN(CCN1)C2=CC=C(C=C2)C3=CN4C(=C(C=N4)C5=CC=NC6=CC=CC=C56)N=C3 [DM3189] + O=C(CCCCCCC(=O)Nc1ccccc1)NO [Vorinostat] (partner 1 µM)
In short: (§1)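 Lung cancer cell lines were seeded in 1536-well plates and dosed by pin tool the next day, with either a single drug or a fixed anchor-drug dose combined with five library-drug doses (not always all listed) spaced in √10 steps. Five days later, one step fixed the cells and stained their nuclei (final 0.05% Triton X-100, 1% formaldehyde, 1 ug/ml Hoechst), and nuclei were counted on 4× images. Relative viability is the nuclei count in treated wells divided by the count in vehicle wells, and each value is the median of duplicate plates.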

DM3189 + Foretinib = compound: C1CN(CCN1)C2=CC=C(C=C2)C3=CN4C(=C(C=N4)C5=CC=NC6=CC=CC=C56)N=C3 [DM3189] + COc1cc2c(Oc3ccc(NC(=O)C4(C(=O)Nc5ccc(F)cc5)CC4)cc3F)ccnc2cc1OCCCN1CCOCC1 [Foretinib] (partner 0.25 µM)
In short: as §1

DM3189 + Bortezomib = compound: C1CN(CCN1)C2=CC=C(C=C2)C3=CN4C(=C(C=N4)C5=CC=NC6=CC=CC=C56)N=C3 [DM3189] + CC(C)C[C@H](NC(=O)[C@H](Cc1ccccc1)NC(=O)c1cnccn1)B(O)O [Bortezomib] (partner 0.002 µM)
In short: as §1

DM3189 + Tozasertib = compound: C1CN(CCN1)C2=CC=C(C=C2)C3=CN4C(=C(C=N4)C5=CC=NC6=CC=CC=C56)N=C3 [DM3189] + Cc1cc(Nc2cc(N3CCN(C)CC3)nc(Sc3ccc(NC(=O)C4CC4)cc3)n2)n[nH]1 [Tozasertib] (partner 0.1 µM)
In short: as §1

DM3189 + Luminespib = compound: C1CN(CCN1)C2=CC=C(C=C2)C3=CN4C(=C(C=N4)C5=CC=NC6=CC=CC=C56)N=C3 [DM3189] + CCNC(=O)c1noc(-c2cc(C(C)C)c(O)cc2O)c1-c1ccc(CN2CCOCC2)cc1 [Luminespib] (partner 0.01 µM)
In short: as §1

| Cell Line | relative viability (DM3189 + Vorinostat; first compound 0.08 µM) | relative viability (DM3189 + Vorinostat; first compound 0.253 µM) | relative viability (DM3189 + Vorinostat; first compound 0.8 µM) | relative viability (DM3189 + Vorinostat; first compound 2.53 µM) | relative viability (DM3189 + Foretinib; first compound 0.08 µM) | relative viability (DM3189 + Foretinib; first compound 0.253 µM) | relative viability (DM3189 + Foretinib; first compound 0.8 µM) | relative viability (DM3189 + Foretinib; first compound 2.53 µM) | relative viability (DM3189 + Bortezomib; first compound 0.08 µM) | relative viability (DM3189 + Bortezomib; first compound 0.253 µM) | relative viability (DM3189 + Bortezomib; first compound 0.8 µM) | relative viability (DM3189 + Bortezomib; first compound 2.53 µM) | relative viability (DM3189 + Tozasertib; first compound 0.08 µM) | relative viability (DM3189 + Tozasertib; first compound 0.253 µM) | relative viability (DM3189 + Tozasertib; first compound 0.8 µM) | relative viability (DM3189 + Tozasertib; first compound 2.53 µM) | relative viability (DM3189 + Luminespib; first compound 0.08 µM) | relative viability (DM3189 + Luminespib; first compound 0.253 µM) | relative viability (DM3189 + Luminespib; first compound 0.8 µM) | relative viability (DM3189 + Luminespib; first compound 2.53 µM) |
| --- | --- | --- | --- | --- | --- | --- | --- | --- | --- | --- | --- | --- | --- | --- | --- | --- | --- | --- | --- | --- |
| LXF-289 | 0.759 | 0.829 | 0.663 | 0.757 | 0.982 | 0.963 | 0.987 | 1.02 | 1 | 0.929 | 0.988 | 1.11 | 0.208 | 0.196 | 0.166 | 0.236 | 0.758 | 0.583 | 0.61 | 0.805 |
| NCI-H23 | 0.668 | 0.51 | 0.564 | 0.539 | 1.01 | 0.861 | 0.882 | 0.982 | 1.18 | 0.825 | 0.928 | 1.02 | 0.291 | 0.389 | 0.296 | 0.376 | 0.205 | 0.229 | 0.216 | 0.179 |
| NCI-H322M | 0.97 | 0.874 | 0.783 | 0.791 | 0.942 | 0.944 | 0.886 | 0.774 | 1.25 | 1.38 | 1.19 | 1.23 | 0.481 | 0.427 | 0.448 | 0.404 | 0.958 | 0.818 | 0.739 | 0.666 |
| NCI-H441 | 0.879 | 0.772 | 0.885 | 0.674 | 1.01 | 0.726 | 1.24 | 0.702 | 0.656 | 0.604 | 0.447 | 0.645 | 0.943 | 0.57 | 0.681 | 0.738 | 0.288 | 0.363 | 0.314 | 0.264 |
| NCI-H460 | 1.02 | 0.725 | 0.654 | 0.862 | 0.951 | 1.03 | 0.995 | 1.34 | 1.19 | 1.07 | 1.06 | 0.255 | 0.384 | 0.393 | 0.12 | 0.277 | 0.0319 | 0.0329 | 0.0354 | 0.0318 |
| NCI-H520 | 0.712 | 0.633 | 0.57 | 0.292 | 0.713 | 0.554 | 0.62 | 0.631 | 0.503 | 0.345 | 0.429 | 0.368 | 0.491 | 0.33 | 0.364 | 0.313 | 0.238 | 0.228 | 0.214 | 0.214 |
| NCI-H596 | 0.606 | 0.669 | 0.605 | 0.756 | 1.12 | 0.955 | 0.695 | 1.06 | 1.34 | 0.969 | 1.03 | 1.28 | 0.826 | 0.869 | 0.937 | 0.92 | 1.27 | 1.07 | 1.09 | 0.851 |
| NCI-H647 | 0.624 | 0.531 | 0.562 | 0.343 | 1.06 | 1.13 | 1.08 | 1.01 | 1.08 | 0.871 | 0.667 | 0.35 | 0.259 | 0.212 | 0.408 | 0.235 | 0.122 | 0.146 | 0.115 | 0.136 |
| NCI-H650 | 0.391 | 0.501 | 0.383 | 0.428 | 1.04 | 0.964 | 0.912 | 1.02 | 1 | 0.765 | 0.635 | 0.655 | 0.713 | 0.667 | 0.623 | 0.696 | 0.761 | 0.729 | 0.701 | 0.767 |
| NCI-H661 | 0.826 | 0.796 | 0.809 | 0.883 | 1.14 | 0.954 | 1.02 | 1.19 | 0.931 | 0.997 | 1.06 | 1.14 | 0.36 | 0.346 | 0.351 | 0.336 | 1.07 | 0.922 | 0.959 | 0.78 |
| NCI-H727 | 1.43 | 1.05 | 0.972 | 1.13 | 0.792 | 0.821 | 0.668 | 0.818 | 1.07 | 0.854 | – | 0.716 | 0.648 | 0.568 | 0.654 | 0.578 | 0.402 | 0.377 | – | 0.31 |
| NCI-H838 | 0.757 | 0.675 | 0.65 | 0.733 | 0.951 | 0.891 | 0.689 | 0.895 | 1 | 0.64 | 0.633 | 0.92 | 0.256 | 0.249 | 0.255 | 0.281 | 0.309 | 0.322 | 0.242 | 0.246 |
| NCI-H1355 | 0.64 | 0.636 | 0.504 | 0.565 | 0.987 | 0.968 | 0.91 | 0.979 | 1.21 | 1.22 | 0.992 | 1.17 | 0.547 | 0.55 | 0.513 | 0.438 | 0.621 | 0.674 | 0.626 | 0.602 |
| NCI-H1437 | 0.917 | 0.916 | 0.843 | 1.05 | 1.29 | 1.33 | 1.33 | 1.33 | 0.601 | 0.442 | 0.543 | 0.628 | 0.396 | 0.369 | 0.379 | 0.397 | 1.15 | 1.1 | 1.1 | 1.1 |
| NCI-H1650 | 0.505 | 0.539 | 0.638 | 0.644 | 1.04 | 1.18 | 1.21 | 1.12 | 0.248 | 0.163 | 0.228 | 0.189 | 0.322 | 0.362 | 0.389 | 0.377 | 0.183 | 0.183 | 0.188 | 0.197 |
